Patent publication US20250136607A1 (REGOR PHARMACEUTICALS, INC., priority 2021, published 2025)

biological target: Protein arginine deiminase 4 (PAD4) (Homo sapiens, UniProt Q9UM07); assay: PAD4 ammonia release assay; type: biochemical; conditions: PAD4 activity comparison; read-out: PAD4 Ammonia assay IC50
In short: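 Ammonia release from BAEE substrate (2× mix 600 μM) was measured after 60 min at RT, following 15 min enzyme–compound preincubation (PAD4 2× 20 nM; pH 8.0 HEPES, 2 mM CaCl2, TCEP; 1.25% DMSO). Detection used OPA/DTT/EDTA for 120 min. % inhibition was taken versus reference-compound and DMSO controls; IC50 by four-parameter logistic fit.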

Protein arginine deiminase 4 (PAD4), sequence (Q9UM07 whole entry): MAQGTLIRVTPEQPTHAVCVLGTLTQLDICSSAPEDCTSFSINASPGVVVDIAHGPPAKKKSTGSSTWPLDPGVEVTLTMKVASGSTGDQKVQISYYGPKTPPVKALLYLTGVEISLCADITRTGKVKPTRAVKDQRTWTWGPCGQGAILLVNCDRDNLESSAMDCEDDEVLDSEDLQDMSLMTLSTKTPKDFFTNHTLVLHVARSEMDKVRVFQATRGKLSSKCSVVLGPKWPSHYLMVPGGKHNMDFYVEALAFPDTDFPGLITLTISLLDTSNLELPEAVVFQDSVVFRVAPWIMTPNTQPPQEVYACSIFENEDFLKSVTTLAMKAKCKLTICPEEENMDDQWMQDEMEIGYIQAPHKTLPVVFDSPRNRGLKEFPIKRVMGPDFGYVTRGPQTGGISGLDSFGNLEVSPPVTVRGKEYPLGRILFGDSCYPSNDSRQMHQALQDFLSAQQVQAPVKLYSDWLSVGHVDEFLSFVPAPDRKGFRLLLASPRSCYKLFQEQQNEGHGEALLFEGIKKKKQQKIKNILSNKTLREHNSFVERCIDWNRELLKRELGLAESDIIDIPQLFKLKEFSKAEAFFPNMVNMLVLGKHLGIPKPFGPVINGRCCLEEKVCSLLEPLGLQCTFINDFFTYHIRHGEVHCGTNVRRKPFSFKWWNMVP

IC50	Structure (SMILES)
207 nM	CCC1CNc2cccc3cc(-c4nc5cc(C(=O)N6C[C@H]7CC[C@@H]6[C@@H]7N)cc(OC)c5n4C)n1c23 (stereo partly drawn) [Example 102, ((1R,4R,7R)-7-amino-2-azabicyclo[2.2.1]heptan-2-yl)(2-(3-ethyl-2,3-dihydro-1H-pyrrolo[1,2,3-de]quinoxalin-5-yl)-7-methoxy-1-methyl-1H-benzo[d]imidazol-5-yl)methanone]

same assay, conditions: PAD4 ammonia release assay, BAEE substrate, 60 min at RT; read-out: Average IC50 Abs

IC50	Structure (SMILES)
> 5000 nM	CCC1CNc2c(Cl)ccc3cc(-c4nc5cc(C(=O)N6C[C@H]7CC[C@@H]6[C@@H]7N)cc(F)c5n4C)n1c23 (stereo partly drawn) [Example 125, ((1R,4R,7R)-7-amino-2-azabicyclo[2.2.1]heptan-2-yl)(2-(9-chloro-3-ethyl-2,3-dihydro-1H-pyrrolo[1,2,3-de]quinoxalin-5-yl)-7-fluoro-1-methyl-1H-benzo[d]imidazol-5-yl)methanone]
500 to 5000 nM	CCC1C(=O)Nc2c(F)ccc3cc(-c4nc5cc(C(=O)N6C[C@H]7CC[C@@H]6[C@@H]7N)cc(F)c5n4C)n1c23 (stereo partly drawn) [Example 126, 5-(5-((1R,4R,7R)-7-amino-2-azabicyclo[2.2.1]heptane-2-carbonyl)-7-fluoro-1-methyl-1H-benzo[d]imidazol-2-yl)-3-ethyl-9-fluoro-1H-pyrrolo[1,2,3-de]quinoxalin-2(3H)-one]
500 to 5000 nM	CCC1C(=O)Nc2c(C#N)ccc3cc(-c4nc5cc(C(=O)N6C[C@H]7CC[C@@H]6[C@@H]7N)cc(F)c5n4C)n1c23 (stereo partly drawn) [Example 127, 5-(5-((1R,4R,7R)-7-amino-2-azabicyclo[2.2.1]heptane-2-carbonyl)-7-fluoro-1-methyl-1H-benzo[d]imidazol-2-yl)-3-ethyl-2-oxo-2,3-dihydro-1H-pyrrolo[1,2,3-de]quinoxaline-9-carbonitrile]
100 to 500 nM	CCC1CNc2c(C#N)ccc3cc(-c4nc5cc(C(=O)N6C[C@H]7CC[C@@H]6[C@@H]7N)cc(F)c5n4C)n1c23 (stereo partly drawn) [Example 128, 5-(5-((1R,4R,7R)-7-amino-2-azabicyclo[2.2.1]heptane-2-carbonyl)-7-fluoro-1-methyl-1H-benzo[d]imidazol-2-yl)-3-ethyl-2,3-dihydro-1H-pyrrolo[1,2,3-de]quinoxaline-9-carbonitrile]
100 to 500 nM	CCC1C(=O)Nc2cccc3cc(-c4nc5cc(C(=O)N6C[C@H]7CC[C@@H]6[C@@H]7N)cc(F)c5n4C)n1c23 (stereo partly drawn) [Example 129, 5-(5-((1R,4R,7R)-7-amino-2-azabicyclo[2.2.1]heptane-2-carbonyl)-7-fluoro-1-methyl-1H-benzo[d]imidazol-2-yl)-3-ethyl-1H-pyrrolo[1,2,3-de]quinoxalin-2(3H)-one]
100 to 500 nM	CCC1CNc2c(F)ccc3cc(-c4nc5cc(C(=O)N6C[C@H]7CC[C@@H]6[C@@H]7N)cc(F)c5n4C)n1c23 (stereo partly drawn) [Example 131, ((1R,4R,7R)-7-amino-2-azabicyclo[2.2.1]heptan-2-yl)(2-(3-ethyl-9-fluoro-2,3-dihydro-1H-pyrrolo[1,2,3-de]quinoxalin-5-yl)-7-fluoro-1-methyl-1H-benzo[d]imidazol-5-yl)methanone]
100 to 500 nM	CCC1CNc2c(C)ccc3cc(-c4nc5cc(C(=O)N6C[C@H]7CC[C@@H]6[C@@H]7N)cc(F)c5n4C)n1c23 (stereo partly drawn) [Example 132, ((1R,4R,7R)-7-amino-2-azabicyclo[2.2.1]heptan-2-yl)(2-(3-ethyl-9-methyl-2,3-dihydro-1H-pyrrolo[1,2,3-de]quinoxalin-5-yl)-7-fluoro-1-methyl-1H-benzo[d]imidazol-5-yl)methanone]
> 5000 nM	CC[C@H]1[C@H](C)Nc2cccc3cc(-c4nc5cc(C(=O)N6C[C@H]7CC[C@@H]6[C@@H]7N)cc(F)c5n4C)n1c23 [Example 134, trans-((1R,4R,7R)-7-amino-2-azabicyclo[2.2.1]heptan-2-yl)(2-(3-ethyl-2-methyl-2,3-dihydro-1H-pyrrolo[1,2,3-de]quinoxalin-5-yl)-7-fluoro-1-methyl-1H-benzo[d]imidazol-5-yl)methanone]
> 5000 nM	CCC1CNc2nccc3cc(-c4nc5cc(C(=O)N6C[C@H]7CC[C@@H]6[C@@H]7N)cc(F)c5n4C)n1c23 (stereo partly drawn) [Example 135, ((1R,4R,7R)-7-amino-2-azabicyclo[2.2.1]heptan-2-yl)(2-(3-ethyl-4,5-dihydro-3H-2a, 5,6-triazaacenaphthylen-2-yl)-7-fluoro-1-methyl-1H-benzo[d]imidazol-5-yl)methanone]
> 5000 nM	CCC1CNc2nccc3cc(-c4nc5cc(C(=O)N6C[C@H](N)C[C@@H](F)C6)cc(F)c5n4C)n1c23 (stereo partly drawn) [Example 136, ((3R,5R)-3-amino-5-fluoropiperidin-1-yl)(2-(3-ethyl-4,5-dihydro-3H-2a, 5,6-triazaacenaphthylen-2-yl)-7-fluoro-1-methyl-1H-benzo[d]imidazol-5-yl)methanone]
500 to 5000 nM	CCC1C(=O)Nc2cccc3cc(-c4nc5cc(C(=O)N6C[C@H]7CC[C@@H]6[C@@H]7N)cnn5c4C)n1c23 (stereo partly drawn) [Example 137, 2-[7-[(1R,4R,7R)-7-amino-2-azabicyclo[2.2.1]heptane-2-carbonyl]-3-methyl-imidazo[1,2-b]pyridazin-2-yl]-11-ethyl-1,9-diazatricyclo[6.3.1.04,12]dodeca-2,4,6,8(12)-tetraen-10-one]
500 to 5000 nM	CCC1CNc2cccc3cc(-c4nc5cc(C(=O)N6C[C@H]7CC[C@@H]6[C@@H]7N)cnn5c4C)n1c23 (stereo partly drawn) [Example 138, [(1R,4R,7R)-7-amino-2-azabicyclo[2.2.1]heptan-2-yl]-[2-(11-ethyl-1,9-diazatricyclo[6.3.1.0^4,12]dodeca-2,4,6,8(12)-tetraen-2-yl)-3-methyl-imidazo[1,2-b]pyridazin-7-yl]methanone]
500 to 5000 nM	CCC1CC(=O)c2cccc3cc(-c4nc5cc(C(=O)N6C[C@H]7CC[C@@H]6[C@@H]7N)cc(F)c5n4C)n1c23 (stereo partly drawn) [Example 139, 2-(5-((1R,4R,7R)-7-amino-2-azabicyclo[2.2.1]heptane-2-carbonyl)-7-fluoro-1-methyl-1H-benzo[d]imidazol-2-yl)-4-ethyl-4,5-dihydro-6H-pyrrolo[3,2,1-ij]quinolin-6-one]

More lines, now with the values behind:

Structure (SMILES)	IC50
CCC1CN(CCCO)c2cccc3cc(-c4nc5cc(C(=O)N6C[C@H](N)C[C@@H](F)C6)cc(F)c5n4CC)n1c23 (stereo partly drawn) [Example 99, ((3R,5R)-3-amino-5-fluoropiperidin-1-yl)(1-ethyl-2-(3-ethyl-1-(3-hydroxypropyl)-2,3-dihydro-1H-pyrrolo[1,2,3-de]quinoxalin-5-yl)-7-fluoro-1H-benzo[d]imidazol-5-yl)methanone]	100 to 500 nM
CCC1CNc2cccc3cc(-c4nc5cc(C(=O)N6C[C@H]7CC[C@@H]6[C@@H]7N)cc(OC)c5n4C)n1c23 (stereo partly drawn) [Example 102, ((1R,4R,7R)-7-amino-2-azabicyclo[2.2.1]heptan-2-yl)(2-(3-ethyl-2,3-dihydro-1H-pyrrolo[1,2,3-de]quinoxalin-5-yl)-7-methoxy-1-methyl-1H-benzo[d]imidazol-5-yl)methanone]	100 to 500 nM
CC(C)[C@@H]1CNc2cccc3cc(-c4nc5cc(C(=O)N6C[C@H]7CC[C@@H]6[C@@H]7N)cc(F)c5n4C)n1c23 [Example 105, ((1R,4R,7R)-7-amino-2-azabicyclo[2.2.1]heptan-2-yl)(7-fluoro-2-((R)-3-isopropyl-2,3-dihydro-1H-pyrrolo[1,2,3-de]quinoxalin-5-yl)-1-methyl-1H-benzo[d]imidazol-5-yl)methanone]	500 to 5000 nM
Cn1c(-c2cc3cc(C#N)cc4c3n2[C@H](C2CC2)CN4)nc2cc(C(=O)N3C[C@H]4CC[C@@H]3[C@@H]4N)cc(F)c21 [Example 117, (R)-5-(5-((1R,4R,7R)-7-amino-2-azabicyclo[2.2.1]heptane-2-carbonyl)-7-fluoro-1-methyl-1H-benzo[d]imidazol-2-yl)-3-cyclopropyl-2,3-dihydro-1H-pyrrolo[1,2,3-de]quinoxaline-8-carbonitrile]	> 5000 nM
Cn1c(-c2cc3cc(C#N)cc4c3n2[C@@H](C2CC2)CN4)nc2cc(C(=O)N3C[C@H]4CC[C@@H]3[C@@H]4N)cc(F)c21 [Example 118, (S)-5-(5-((1R,4R,7R)-7-amino-2-azabicyclo[2.2.1]heptane-2-carbonyl)-7-fluoro-1-methyl-1H-benzo[d]imidazol-2-yl)-3-cyclopropyl-2,3-dihydro-1H-pyrrolo[1,2,3-de]quinoxaline-8-carbonitrile]	100 to 500 nM
Cn1c(-c2cc3c(C#N)ccc4c3n2[C@H](C2CC2)CN4)nc2cc(C(=O)N3C[C@H]4CC[C@@H]3[C@@H]4N)cc(F)c21 [Example 119, (R)-5-(5-((1R,4R,7R)-7-amino-2-azabicyclo[2.2.1]heptane-2-carbonyl)-7-fluoro-1-methyl-1H-benzo[d]imidazol-2-yl)-3-cyclopropyl-2,3-dihydro-1H-pyrrolo[1,2,3-de]quinoxaline-7-carbonitrile]	> 5000 nM
Cn1c(-c2cc3c(C#N)ccc4c3n2[C@@H](C2CC2)CN4)nc2cc(C(=O)N3C[C@H]4CC[C@@H]3[C@@H]4N)cc(F)c21 [Example 120, (S)-5-(5-((1R,4R,7R)-7-amino-2-azabicyclo[2.2.1]heptane-2-carbonyl)-7-fluoro-1-methyl-1H-benzo[d]imidazol-2-yl)-3-cyclopropyl-2,3-dihydro-1H-pyrrolo[1,2,3-de]quinoxaline-7-carbonitrile]	> 5000 nM
Cn1c(-c2cc3ccc(C(F)(F)F)c4c3n2C(C2CC2)CN4)nc2cc(C(=O)N3C[C@H]4CC[C@@H]3[C@@H]4N)cc(F)c21 (stereo partly drawn) [Example 121, [(1R,4R,7R)-7-amino-2-azabicyclo[2.2.1]heptan-2-yl]-[2-[11-cyclopropyl-7-(trifluoromethyl)-1,9-diazatricyclo[6.3.1.0^4,12]dodeca-2,4,6,8(12)-tetraen-2-yl]-7-fluoro-1-methyl-benzimidazol-5-yl]methanone]	≤ 100 nM
CCC1C(=O)Nc2c(Cl)ccc3cc(-c4nc5cc(C(=O)N6C[C@H]7CC[C@@H]6[C@@H]7N)cc(F)c5n4C)n1c23 (stereo partly drawn) [Example 124, 5-(5-((1R,4R,7R)-7-amino-2-azabicyclo[2.2.1]heptane-2-carbonyl)-7-fluoro-1-methyl-1H-benzo[d]imidazol-2-yl)-9-chloro-3-ethyl-1H-pyrrolo[1,2,3-de]quinoxalin-2(3H)-one]	500 to 5000 nM
